# According to PubChem BioAssay AID1963827 (Molecular Pharmacology Branch, DTP, NCI, 2024):
# pIC50: −log10 of the molar value. “And” between values parts separate entries of the source, which are not always exact repeats. Identical values can stand only once.
# Test system: 994946-033-R-J1-PDC complex spheroid viability
# Assay: Anticancer human tumor 994946-033-R-J1-PDC patient-derived melanoma cell line growth inhibition [POLQ]
# Settings: for viability, T/C: stronger effect = lower value
# Protocol: Multicellular complex tumor spheroid response to Polymerase (POL) inhibitors (novobiocin, ART-558, RP6685) in combination with a variety of drugs and investigational agents in selected tumor cell lines
# The POL inhibitors (novobiocin, ART-558, and RP6685) were evaluated both individually and in combination with standard of care and investigational anticancer small molecules within a complex spheroid model of solid tumors. . Complex spheroids include a stromal component modeled by human endothelial cells (HUVEC) and fibroblasts modeled by human mesenchymal stem cells (MSCs). The concentration ranges selected for each drug and investigational agent were based upon clinically achievable concentrations if the clinical Cmax of the agent was known.
# Compounds. The drugs and investigational agents: novobiocin (NSC847541), ART-558 (NSC835418), RP-6685 (NSC848927), peposertib (NSC802822), ceralasertib (NSC780249), elimusertib (NSC800525), camonsertib (NSC841442), AZD-1390 (NSC803789), olaparib (NSC753686), talazoparib (NSC767125), rucaparib (NSC756644), sotorasib (NSC818433), MRTX-1133 (NSC836407), SN-38 (NSC673596), topotecan (NSC609699), epotoside (NSC141540), doxorubicin (NSC123127), gemcitabine (NSC613327), 5-fluorouracil (NSC19893), paclitaxel (NSC125973), vemurafenib (NSC761431), MSA-2 (NSC828583), SN-011 (NSC837082), adavosertib (NSC754352), prexasertib (NSC758257), carboplatin (NSC241240) and oxaliplatin (NSC266046), were obtained from the National Cancer Institute (NCI) Developmental Therapeutics Program Chemical Repository (21). The FDA-approved anticancer drug set is available from the Developmental Therapeutics Program at https://dtp.cancer.gov/organization/dscb/obtaining/. […] The stock solutions were prepared in dimethyl sulfoxide (DMSO, Sigma-Aldrich, St. Louis, MO, cat. D2650), except for the platinum compounds which were prepared in saline (Quality Biological, Gaithersburg, MD, cat. 114-055-101), at 800-fold the tested concentration and stored at -70 degrees C prior to their use. All drugs and investigational agents were tested over a range starting from a high concentration at or near the clinical Cmax and decreasing in half-log increments. If the clinical Cmax for an agent had not been determined, the highest concentration tested was 10 microM, except for SN-38, which was tested at a high concentration of 1 microM.
# Cell Culture. All cells were maintained in an incubator at 37 degrees C and 5% CO2 with 95% humidity. The PDC lines were cultured according to standard operating procedures established by the NCI PDMR (https://pdmr.cancer.gov). Table 3 of the manuscript, lists the cell lines along with the number of the three cell types plated to form the mct-spheroids and media for tumor cell growth. After thawing, all PDC lines, except 997537-175-T-J1-PDC and 415267-285-R-J2-PDC, were cultured in Matrigel-coated flasks prepared with a working solution of 1X Ham's F-12 nutrient mix, without supplementation (Thermo Fisher Scientific, cat. 11765054), 100 U/mL penicillin-streptomycin (Thermo Fisher Scientific, cat. 15140122), and 2.5% Matrigel (Corning Inc., Corning, NY, cat. 354248) for the first three passages. The two PDC lines 997537-175-T-J1-PDC and 415267-285-R-J2-PDC were cultured on uncoated flasks. The 857933-349-R-J2-PDC line was cultured in 6C/Colon 1B media containing advanced DMEM/F-12 (Thermo Fisher Scientific, cat. 12634028), 10 mM HEPES (Thermo Fisher Scientific, cat. 15630080), 1X GlutaMAX supplement (Thermo Fisher Scientific, cat. 35050061), 0.1 mg/mL primocin (InvivoGen, San Diego, CA, cat. ant-pm-2), 10% defined fetal bovine serum, heat inactivated (HyClone Laboratories Inc., Logan, UT, cat. SH30070.03HI), 50% L-WRN conditioned media (ATCC, cat. CRL-3276), 1.25 mM N-Acetyl-L-cysteine (Sigma-Aldrich, cat. A9165), 10 mM nicotinamide (Sigma-Aldrich, cat. N0636), 1X B-27 supplement (Thermo Fisher Scientific, cat. 17504044), 1X N-2 supplement (Thermo Fisher Scientific, cat. […]
# [1] = curve of first compound, second compound 0.0316 µM
# [2] = curve of first compound, second compound 0.1 µM
# [3] = curve of first compound, second compound 0.316 µM
# [4] = curve of first compound, second compound 1 µM
# [5] = curve of first compound, second compound 3.16 µM
# [6] = curve of first compound, second compound 10 µM
# [7] = second compound 0.0316 µM, first compound 0.0316 µM
# [8] = second compound 0.0316 µM, first compound 0.1 µM
# [9] = second compound 0.0316 µM, first compound 0.316 µM
# [10] = second compound 0.0316 µM, first compound 1 µM
# [11] = second compound 0.0316 µM, first compound 3.16 µM
# [12] = second compound 0.0316 µM, first compound 10 µM
# [13] = second compound 0.1 µM, first compound 0.0316 µM
# [14] = second compound 0.1 µM, first compound 0.1 µM
# [15] = second compound 0.1 µM, first compound 0.316 µM
# [16] = second compound 0.1 µM, first compound 1 µM
# [17] = second compound 0.1 µM, first compound 3.16 µM
# [18] = second compound 0.1 µM, first compound 10 µM
# [19] = second compound 0.316 µM, first compound 0.0316 µM
# [20] = second compound 0.316 µM, first compound 0.1 µM
# [21] = second compound 0.316 µM, first compound 0.316 µM
# [22] = second compound 0.316 µM, first compound 1 µM
# [23] = second compound 0.316 µM, first compound 3.16 µM
# [24] = second compound 0.316 µM, first compound 10 µM
# [25] = second compound 1 µM, first compound 0.0316 µM
# [26] = second compound 1 µM, first compound 0.1 µM
# [27] = second compound 1 µM, first compound 0.316 µM
# [28] = second compound 1 µM, first compound 1 µM
# [29] = second compound 1 µM, first compound 3.16 µM
# [30] = second compound 1 µM, first compound 10 µM
# [31] = second compound 3.16 µM, first compound 0.0316 µM
# [32] = second compound 3.16 µM, first compound 0.1 µM
# [33] = second compound 3.16 µM, first compound 0.316 µM
# [34] = second compound 3.16 µM, first compound 1 µM
# [35] = second compound 3.16 µM, first compound 3.16 µM
# [36] = second compound 3.16 µM, first compound 10 µM
# [37] = second compound 10 µM, first compound 0.0316 µM
# [38] = second compound 10 µM, first compound 0.1 µM
# [39] = second compound 10 µM, first compound 0.316 µM
# [40] = second compound 10 µM, first compound 1 µM
# [41] = second compound 10 µM, first compound 3.16 µM
# [42] = second compound 10 µM, first compound 10 µM
# 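Also: spheroids exposed to drugs for 7 days.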
# 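For viability, T/C in this document: 100% = DMSO vehicle treated spheroids.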
compound,measurement,setting,value
CCCS(=O)(=O)Nc1ccc(F)c(C(=O)c2c[nH]c3ncc(-c4ccc(Cl)cc4)cc23)c1F + Nc1ccc(C#CCN(C(=O)Cc2ncc(C(F)(F)F)cc2C(F)(F)F)c2ccc(F)cc2)nn1,pIC50,[1],5.16
same,pIC50,[2],5.16
same,pIC50,[3],5.17
same,pIC50,[4],5.13
same,pIC50,[5],5.14
same,pIC50,[6],5.20
same,"viability, T/C",[7],64.2%
same,"viability, T/C",[8],88%
same,"viability, T/C",[9],102%
same,"viability, T/C",[10],75.3%
same,"viability, T/C",[11],107%
same,"viability, T/C",[12],31.9%
same,"viability, T/C",[13],99.6%
same,"viability, T/C",[14],93%
same,"viability, T/C",[15],95.9%
same,"viability, T/C",[16],115%
same,"viability, T/C",[17],100%
same,"viability, T/C",[18],26.8%
same,"viability, T/C",[19],80.6%
same,"viability, T/C",[20],98.9%
same,"viability, T/C",[21],93.9%
same,"viability, T/C",[22],118%
same,"viability, T/C",[23],84.5%
same,"viability, T/C",[24],32.5%
same,"viability, T/C",[25],84.5%
same,"viability, T/C",[26],94.2%
same,"viability, T/C",[27],114%
same,"viability, T/C",[28],124%
same,"viability, T/C",[29],108%
same,"viability, T/C",[30],31.3%
same,"viability, T/C",[31],95.5%
same,"viability, T/C",[32],134%
same,"viability, T/C",[33],99.2%
same,"viability, T/C",[34],127%
same,"viability, T/C",[35],90.9%
same,"viability, T/C",[36],34.6%
same,"viability, T/C",[37],114%
same,"viability, T/C",[38],85%
same,"viability, T/C",[39],85.9%
same,"viability, T/C",[40],96.2%
same,"viability, T/C",[41],95.6%
same,"viability, T/C",[42],19.6%
COc1cc(C2c3cc4c(cc3C(OC3OC5COC(C)OC5C(O)C3O)C3COC(=O)C23)OCO4)cc(OC)c1O (stereo unspecified),"viability, T/C",compound 0.0316 µM,92.1% and 89.8% and 87.4%
same,"viability, T/C",compound 0.1 µM,56.1% and 74.7% and 56.7%
same,"viability, T/C",compound 0.316 µM,42.6% and 37.3% and 54.9%
same,"viability, T/C",compound 1 µM,36.4% and 29.4% and 38.1%
same,"viability, T/C",compound 3.16 µM,15% and 14.1% and 14.8%
same,"viability, T/C",compound 10 µM,5.65% and 9.75% and 6.75%
same,pIC50,curve of compound,6.67 and 6.62 and 6.50
COc1ccc([C@@H](O)c2cc(-c3ncnc4cc(N5CCOCC5)ccc34)c(F)cc2Cl)nn1 + COC1C(OC(N)=O)C(O)C(Oc2ccc3c(O)c(NC(=O)c4ccc(O)c(CC=C(C)C)c4)c(=O)oc3c2C)OC1(C)C,pIC50,[1],5.38
same,pIC50,[2],5.66
same,pIC50,[3],5.31
same,pIC50,[4],5.21
same,pIC50,[5],5.15
same,pIC50,[6],5.04
same,"viability, T/C",[7],101%
same,"viability, T/C",[8],83%
same,"viability, T/C",[9],83.5%
same,"viability, T/C",[10],78.8%
same,"viability, T/C",[11],49.4%
same,"viability, T/C",[12],36.5%
same,"viability, T/C",[13],107%
same,"viability, T/C",[14],74.5%
same,"viability, T/C",[15],93%
same,"viability, T/C",[16],73.5%
same,"viability, T/C",[17],36.7%
same,"viability, T/C",[18],41.8%
same,"viability, T/C",[19],93.3%
same,"viability, T/C",[20],107%
same,"viability, T/C",[21],85.8%
same,"viability, T/C",[22],64%
same,"viability, T/C",[23],62.3%
same,"viability, T/C",[24],39.6%
same,"viability, T/C",[25],128%
same,"viability, T/C",[26],90.6%
same,"viability, T/C",[27],70.6%
same,"viability, T/C",[28],68.7%
same,"viability, T/C",[29],76%
same,"viability, T/C",[30],39.5%
same,"viability, T/C",[31],91.7%
same,"viability, T/C",[32],88.7%
same,"viability, T/C",[33],96.1%
same,"viability, T/C",[34],70.5%
same,"viability, T/C",[35],62.6%
same,"viability, T/C",[36],44.9%
same,"viability, T/C",[37],103%
same,"viability, T/C",[38],90.4%
same,"viability, T/C",[39],71.9%
same,"viability, T/C",[40],65.5%
same,"viability, T/C",[41],60%
same,"viability, T/C",[42],47.4%
